Values of other authors as cited in patent US10052328B2, “Therapeutic composition to treat lesions caused by Herpes Simplex Virus” (G2L TOUCH, INC., priority 2009, dated 2018).

Test system: cold sore (labial herpes simplex)
Conditions: commercial topical cream, versus untreated cold sores

Nc1nc(=O)c2ncn(CCC(CO)CO)c2[nH]1 [PCV, 2-amino-9-[4-hydroxy-3-(hydroxymethyl)butyl]-6,9-dihydro-3H-purin-6-one]
reduction of the duration of a cold sore / lesion, on average: 0.5 days
